Reference: patent US11053204B2, “Pyrimidinyloxy benzene derivatives as herbicides” (FMC Corporation, priority 2015, dated 2021)

Key:
Type in all cases: in vivo
kochia (Kochia scoparia) = test: Test C preemergence, plant response rating
[1] = system: barnyardgrass (Echinochloa crus-galli); test: Test C preemergence, plant response rating; details: Preemergence
[2] = system: galium (catchweed bedstraw, Galium aparine); test: Test C preemergence, plant response rating
[3] = system: nightshade (eastern black nightshade, Solanum ptycanthum); test: Test C preemergence, plant response rating
[4] = system: johnsongrass (Sorghum halepense); test: Test C preemergence, plant response rating
[5] = system: pigweed, palmer (palmer pigweed, Amaranthus palmeri); test: Test C postemergence, plant response rating; details: for Pigweed, Palmer plant response rating: scale 0 to 100 (0 no effect, 100 complete control)
How it was run: (§1)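 After sowing in loam–sand blend or silt loam, pots were sprayed preemergence; separately grown 1- to 4-leaf plants were sprayed postemergence. Following 13 to 15 d under greenhouse conditions, injury was rated visually on a 0 to 100 scale.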

[6] = system: field poppy (Papaver rhoeas); test: Test C postemergence, plant response rating; details: for Field Poppy plant response rating: scale 0 to 100 (0 no effect, 100 complete control)
How it was run: as §1

[7] = system: windgrass (Apera spica-venti); test: Test C postemergence, plant response rating
How it was run: as §1

[8] = system: buckwheat, wild (wild buckwheat, Polygonum convolvulus); test: Test C postemergence, plant response rating; details: for Buckwheat, Wild plant response rating: scale 0 to 100 (0 no effect, 100 complete control)
How it was run: as §1

[9] = system: Canada thistle (Cirsium arvense); test: Test C postemergence, plant response rating; details: for Canada Thistle plant response rating: scale 0 to 100 (0 no effect, 100 complete control)
How it was run: as §1

[10] = system: geranium, cutleaf (cutleaf geranium, Geranium dissectum); test: Test C postemergence, plant response rating; details: for Geranium, Cutleaf plant response rating: scale 0 to 100 (0 no effect, 100 complete control)
How it was run: as §1

[11] = system: speedwell (bird's-eye speedwell, Veronica persica); test: Test C postemergence, plant response rating; details: for Speedwell plant response rating: scale 0 to 100 (0 no effect, 100 complete control)
How it was run: as §1

[12] = system: wild poinsettia (Euphorbia heterophylla); test: Test C postemergence, plant response rating; details: for Poinsettia, Wild plant response rating: scale 0 to 100 (0 no effect, 100 complete control)
How it was run: as §1

[13] = system: nightshade (eastern black nightshade, Solanum ptycanthum); test: Test C postemergence, plant response rating; details: for Nightshade plant response rating: scale 0 to 100 (0 no effect, 100 complete control)
How it was run: as §1

[14] = system: surinam grass (Brachiaria decumbens); test: Test C postemergence, plant response rating
How it was run: as §1

[15] = system: johnsongrass (Sorghum halepense); test: Test C postemergence, plant response rating; details: for Johnsongrass plant response rating: scale 0 to 100 (0 no effect, 100 complete control)
How it was run: as §1

[16] = system: field violet (Viola arvensis); test: Test C postemergence, plant response rating; details: for Field Violet plant response rating: scale 0 to 100 (0 no effect, 100 complete control)
How it was run: as §1

[17] = 125 g ai/ha, scale 0 to 100 (0 no effect, 100 complete control)

## CCCCC(=O)c1c(Br)cccc1Oc1ncc(Cl)cn1 [Compound 79]
Kochia (Kochia scoparia); 16 g ai/ha, scale 0 to 100
  Plant response rating, Kochia: 5
Kochia (Kochia scoparia); 31 g ai/ha, scale 0 to 100
  Plant response rating, Kochia: 90
Kochia (Kochia scoparia); 62 g ai/ha, scale 0 to 100
  Plant response rating, Kochia: 90
Kochia (Kochia scoparia); 125 g ai/ha, scale of 0 to 100
  Plant response rating, Kochia: 100
[1]; 62 g ai/ha, scale of 0 to 100
  Plant response rating, Barnyardgrass: 75
[1]; 125 g ai/ha, scale of 0 to 100
  Plant response rating, Barnyardgrass: 95
[1]; 16 g ai/ha, scale 0 to 100
  Plant response rating, Barnyardgrass: 5
[1]; 31 g ai/ha, scale 0 to 100
  Plant response rating, Barnyardgrass: 60
[2]; 16 g ai/ha, scale 0 to 100
  Plant response rating, Galium: 0
[2]; 31 g ai/ha, scale 0 to 100
  Plant response rating, Galium: 0
[2]; 62 g ai/ha, scale of 0 to 100
  Plant response rating, Galium: 70
[2]; 125 g ai/ha, scale of 0 to 100
  Plant response rating, Galium: 5
[3]; 16 g ai/ha, scale 0 to 100
  Plant response rating, Nightshade: 30
[3]; 31 g ai/ha, scale 0 to 100
  Plant response rating, Nightshade: 65
[3]; 62 g ai/ha, scale 0 to 100
  Plant response rating, Nightshade: 80
[3]; 125 g ai/ha, scale of 0 to 100
  Plant response rating, Nightshade: 95
[4]; 16 g ai/ha, scale 0 to 100
  Plant response rating, Johnsongrass: 0
[4]; 31 g ai/ha, scale 0 to 100
  Plant response rating, Johnsongrass: 5
[4]; 62 g ai/ha, scale 0 to 100
  Plant response rating, Johnsongrass: 50
[4]; 125 g ai/ha, scale of 0 to 100
  Plant response rating, Johnsongrass: 70
[5]; 16 g ai/ha, scale of 0 to 100
  Plant response rating, Pigweed, Palmer: 60
[5]; 31 g ai/ha, scale 0 to 100
  Plant response rating, Pigweed, Palmer: 80
[5]; 62 g ai/ha
  Pigweed, Palmer plant response rating: 70
[5]; 125 g ai/ha
  Pigweed, Palmer plant response rating: 85
[6]; 16 g ai/ha, scale of 0 to 100
  Plant response rating, Field Poppy: 85
[6]; 31 g ai/ha, scale 0 to 100
  Plant response rating, Field Poppy: 98
[6]; 62 g ai/ha
  Field Poppy plant response rating: 100
[6]; 125 g ai/ha
  Field Poppy plant response rating: 100
[7]; 16 g ai/ha, scale of 0 to 100
  Plant response rating, Windgrass: 20
[7]; 31 g ai/ha, scale 0 to 100
  Plant response rating, Windgrass: 35
[7]; [17]
  Windgrass plant response rating: 30
[8]; 16 g ai/ha, scale of 0 to 100
  Plant response rating, Buckwheat, Wild: 75
[8]; 31 g ai/ha, scale 0 to 100
  Plant response rating, Buckwheat, Wild: 80
[8]; 62 g ai/ha
  Buckwheat, Wild plant response rating: 85
[8]; 125 g ai/ha
  Buckwheat, Wild plant response rating: 90
[9]; 16 g ai/ha, scale of 0 to 100
  Plant response rating, Canada Thistle: 55
[9]; 31 g ai/ha, scale 0 to 100
  Plant response rating, Canada Thistle: 65
[9]; 62 g ai/ha
  Canada Thistle plant response rating: 70
[9]; 125 g ai/ha
  Canada Thistle plant response rating: 100
[10]; 16 g ai/ha, scale of 0 to 100
  Plant response rating, Geranium, Cutleaf: 45
[10]; 31 g ai/ha, scale 0 to 100
  Plant response rating, Geranium, Cutleaf: 50
[10]; 62 g ai/ha
  Geranium, Cutleaf plant response rating: 55
[10]; 125 g ai/ha
  Geranium, Cutleaf plant response rating: 65
[11]; 16 g ai/ha, scale of 0 to 100
  Plant response rating, Speedwell: 85
[11]; 31 g ai/ha, scale 0 to 100
  Plant response rating, Speedwell: 90
[11]; 62 g ai/ha
  Speedwell plant response rating: 98
[11]; 125 g ai/ha
  Speedwell plant response rating: 100
[12]; 16 g ai/ha, scale of 0 to 100
  Plant response rating, Poinsettia, Wild: 30
[12]; 31 g ai/ha, scale 0 to 100
  Plant response rating, Poinsettia, Wild: 75
[12]; 62 g ai/ha
  Poinsettia, Wild plant response rating: 80
[12]; 125 g ai/ha
  Poinsettia, Wild plant response rating: 85
[13]; 16 g ai/ha, scale of 0 to 100
  Plant response rating, Nightshade: 90
[13]; 31 g ai/ha, scale 0 to 100
  Plant response rating, Nightshade: 95
[13]; 62 g ai/ha
  Nightshade plant response rating: 95
[13]; 125 g ai/ha
  Nightshade plant response rating: 100
[14]; 16 g ai/ha, scale of 0 to 100
  Plant response rating, Surinam Grass: 25
[14]; 31 g ai/ha, scale 0 to 100
  Plant response rating, Surinam Grass: 25
[14]; [17]
  Surinam Grass plant response rating: 35
[15]; 16 g ai/ha, scale of 0 to 100
  Plant response rating, Johnsongrass: 40
[15]; 31 g ai/ha, scale 0 to 100
  Plant response rating, Johnsongrass: 65
[15]; 62 g ai/ha
  Johnsongrass plant response rating: 60
[15]; 125 g ai/ha
  Johnsongrass plant response rating: 85
[16]; 16 g ai/ha, scale of 0 to 100
  Plant response rating, Field Violet: 70
[16]; 31 g ai/ha, scale 0 to 100
  Plant response rating, Field Violet: 75
[16]; 62 g ai/ha
  Field Violet plant response rating: 85
[16]; 125 g ai/ha
  Field Violet plant response rating: 90
